Reference: patent US10369122B2, “Benzene-1,3,5-tricarboxamide derivatives and uses thereof” (OHIO STATE INNOVATION FOUNDATION, priority 2015, dated 2019)

Test system: Hep3B cells
Assay: TT LLNs-mediated luciferase transfection assay
Type: cell-based, human
Details: for K1 (average luminescence intensity, Kn = ΣRLIn/4): level 1 of the component; for K2 (average luminescence intensity, Kn = ΣRLIn/4): level 2 of the component; for K3 (average luminescence intensity, Kn = ΣRLIn/4): level 3 of the component; for K4 (average luminescence intensity, Kn = ΣRLIn/4): level 4 of the component
Procedure: R. et. al. J. Am. Chem. Soc. 2011, 133, 8995-9004). After formulation, the freshly formed […] were used immediately for cell transfection. For in vivo studies, the freshly prepared LLNs were then dialyzed against PBS buffer using Slide-A-Lyzer dialysis cassettes (3.5 K MWCO, Life Technologies, Grand island, N.Y.). […] Entrapment efficiency of LLNs was determined using the Ribogreen assay reported previously (Love Kevin, T. et. al. Proc. Natl. Acad. Sci. […] Chen, D. et. al. J. Am. Chem. Soc. 2012, 134, 6948-6951). TT LLNs-Mediated Luciferase Transfection Assay. The human hepatocellular carcinoma cell line Hep3B was purchased from American Type Culture Collection (Manassas, Va.) and maintained at 37° C. with 5% CO2 in Eagle's Minimum Essential Medium (MEM) supplemented with 10% heat inactivated FBS. […] Transfections were performed in triplicate. After 6 h of transfection, culture medium containing TT LLNs was carefully removed, and 50 μL of serum-free EMEM and 50 μL of Bright-Glo luciferase substrate were mixed and added to each well. […] Free Flue mRNA served as a negative control. Orthogonal Array Experimental Design. In order to identify a preferred molar ratio of the formulation components, an orthogonal array experiment design was utilized. Four formulation components were assigned in the following orthogonal experiments with a fixed TT/mRNA ratio (10/1). TT3S-DOPE LLNs 1-1 to 1-16 were prepared according to the orthogonal array design table L16(4)^4 and used to transfect Hep3B cells (Table 2). […] On the basis of the result of the first round of nanoparticle formulation, the levels of each factor were further refined, and the second round orthogonal experiment with 16 formulations TT3-DOPE LLNs 2-1 to 2-16 was conducted (Table 4). A similar analysis was performed as described above.

| Compound | ΔK = Kmax − Kmin (impact of the component on mRNA delivery) (first round of TT3-DOPE LLNs) | K1 (average luminescence intensity, Kn = ΣRLIn/4) (first round of TT3-DOPE LLNs) | K2 (average luminescence intensity, Kn = ΣRLIn/4) (first round of TT3-DOPE LLNs) | K3 (average luminescence intensity, Kn = ΣRLIn/4) (first round of TT3-DOPE LLNs) | K4 (average luminescence intensity, Kn = ΣRLIn/4) (first round of TT3-DOPE LLNs) | ΔK = Kmax − Kmin (impact of the component on mRNA delivery) (second round of TT3-DOPE LLNs) | K1 (average luminescence intensity, Kn = ΣRLIn/4) (second round of TT3-DOPE LLNs) | K2 (average luminescence intensity, Kn = ΣRLIn/4) (second round of TT3-DOPE LLNs) | K3 (average luminescence intensity, Kn = ΣRLIn/4) (second round of TT3-DOPE LLNs) | K4 (average luminescence intensity, Kn = ΣRLIn/4) (second round of TT3-DOPE LLNs) |
| --- | --- | --- | --- | --- | --- | --- | --- | --- | --- | --- |
| CC(C)CCC[C@@H](C)[C@H]1CC[C@H]2[C@@H]3CC=C4C[C@@H](O)CC[C@]4(C)[C@H]3CC[C@]12C [Cholesterol, cholesterol] | 1121 | 108 | 1229 | 428 | 535 | 18025 | 29028 | 35974 | 47647 | 57052 |
| CCCCCCCC/C=C\CCCCCCCC(=O)OC[C@H](COP(=O)(O)OCCN)OC(=O)CCCCCCC/C=C\CCCCCCCC [DOPE, 1,2-dioleoyl-sn-glycero-3-phosphoethanolamine] | 1231 | 325 | 369 | 188 | 1419 | 19529 | 33465 | 38426 | 52995 | 44816 |
| 1,2-dimyristoyl-sn-glycerol, methoxypolyethylene glycol-2000 [DMG-PEG2000] | 1121 | 1295 | 407 | 424 | 174 | 43788 | 56896 | 56833 | 42863 | 13109 |
